Measurements published in patent US5635193A, “Stability of azadirachtin-containing solid” (Thermo Trilogy Corporation, priority 1995, dated 1997).

How the values were obtained:
[1] = Storage stability at 55° C. of dried lot 14 solid with added water or ethanol (Example 3, Table 3); type: physicochemical; settings: 55° C. for a short period such as 24 hours
Description: Three values are given in the tables for each azadirachtin level: The amount (in grams) of azadirachtin A is given before the slash. The amount of azadirachtin B (in grams) is given after the slash. The total azadirachtin amount is given in parentheses. Ka, Kb, and Kt refer to the first order decomposition rate constants (with units of 1/day) for azadirachtin A, azadirachtin B, and total azadirachtin, respectively.
Dry solid azadirachtin was obtained by drying a solid azadirachtin sample from Lot 14 (014) in an oven at 55° C. for 24 hours in an unsealed vessel until the volatile content of the solid was less than 0.5%. The dried sample was then split into 6 subsamples. One dry subsample (014D) was used without further treatment. A second subsample (014W1) received 1% by weight of H2 O. A third subsample (014W4) received 4% by weight H2 O. Subsamples 4, 5 and 6 received 1, 3, and 5% by weight of ethanol, respectively and were designated 014E1, 014E3, and 014E5. The subsamples were placed in multiple tightly sealed vials at 55° C. Individual vials were removed periodically to assay for azadirachtin.

[2] = tested on: various insect, mite, nematode, etc. orders; settings: cited from earlier work

C/C=C(\C)C(=O)O[C@H]1C[C@@H](OC(C)=O)[C@@]2(C(=O)OC)CO[C@H]3[C@@H](O)[C@@](C)([C@]45O[C@@]4(C)[C@H]4C[C@@H]5O[C@@H]5OC=C[C@@]54O)[C@H]4[C@]1(CO[C@]4(O)C(=O)OC)[C@@H]32 [azadirachtin]
effect of heating upon azadirachtin stability [1]: little or no effect upon azadirachtin stability | biological activity (in words) [2]: feeding inhibition and growth disruption
